Article PMC8592027, “Structure-Guided Design of D-Galactal Derivatives with High Affinity and Selectivity for the Galectin-8 N-Terminal Domain” (ACS Medicinal Chemistry Letters, 2021)

Assays:
[1] = target: T1, galectin-4N (N-terminal domain) (Homo sapiens, UniProt P56470); experiment: Competitive fluorescence polarization assay, galectin-4N; type: binding; conditions: mean ± SEM of n = 4–8
T1 construct: galectins (N = N-terminal domain, C = C-terminal domain); made in house
T1 sequence (P56470 19-150 limits assumed): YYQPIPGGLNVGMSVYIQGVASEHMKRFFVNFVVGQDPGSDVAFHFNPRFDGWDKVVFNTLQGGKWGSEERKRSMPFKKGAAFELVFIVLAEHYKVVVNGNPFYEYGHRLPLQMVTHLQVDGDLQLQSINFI
Description: (§1) 1. Competitive fluorescence polarization experiments:
(§2) Human galectins -1, -3, -4N, -4C, -7, -8N, -9N, and -9C were expressed and purified as previously described 30,41. Fluorescence polarisation experiments were performed using the PHERAstar FS plat e reader (software version 2.10 R3), and the fluorescence anisotropy of fluorescein tagged probes was measured by excitation at 485 nm and emission at 520 nm. The specific conditions for galectins -1, -3, -4N, -4C, -7, -8N, -9N, and -9C were kept as report ed30,41,42. The synthesised compounds were dissolved in pure DMSO at 20 mM concentration and diluted in PBS to 3-6 different concentrations, and each concentration was tested in duplicate. The highest inhibitor concentrations tested were 1.5 mM. The

K562 cancer cell line = experiment: MTS metabolic activity (cytotoxicity) assay, K562; type: cell-based; conditions: concentrations 1 to 100 μM, 24 hours
Description: We have investigated the cytotoxicity of the compounds 1, 6a, and 6c via a (3-(4,5-dimethylthiazol-2-yl)-5-(3-carboxymethoxyphenyl)-2-(4-sulfophenyl)-2H-tetrazolium) (MTS) assay in K562 and MDA-MB-231 cancer cell lines to establish the direct antitumor activity of compounds, as well as human peripheral blood mononuclear cells (PBMCs), to evaluate their safety.
Metabolic activity assay:
The metabolic activities of the cell lines were determined using the CellTiter 96 Aqueous One Solution cell proliferation assay (MTS Reagents, Promega, Madison, WI, USA), according to the manufacturer instructions. Briefly, the cells were treated with the selected compounds in 0.1% dimethyl sulfoxide (DMSO; vehicle), 0.1% DMSO (control vehicle), or medium (control) and seeded at a cell density of 5,500 cells/well (MDA-MB-231 cells) or 4 x 10^4 cells/well (K562 cells), 7000 cells/well (HepG2 cells) or 1 x 10^5 cells/well (human PBMCs) in duplicates (MDA-MB-231, K562, and […]) or triplicates for HepG2 cells (100 µL), in sterile 96-well plates. For the MDA-MB-231 and HepG2, the cells were left to adhere overnight before adding the compounds. The plates were then incubated for 24 hours (48 hours for HepG2), after which 15 µL of MTS reagent was added to each well. After 30-90 minute of incubation, the absorbance was measured at 492 nm using a microplate reader (Synergy HTX Multi-Mode; BioTek Instruments, Inc., VT, USA). […]
Bead Array Human inflammatory cytokine Kit (content: IL-1, IL-6, IL-8, IL-10, IL-12p). The flow cytometric analyses were performed on an Attune NxT flow cytometer (Thermo Fisher Scientific, […]
Data are represented as means ± standard deviation (SD) from three representative independent experiments.
All experiments were performed at least twice, with average values expressed as means ± SD. All data were analyzed with the statistical software GraphPad Prism 8.0 (GraphPad Software, Inc., CA, USA). by one-way ANOVA followed with Dunnett’s multiple compar ison test. Differences were considered non-significant for p > 0.05, and significant (*) for p < 0.05. […]

[2] = target: T2, galectin-9N (N-terminal domain) (Homo sapiens, UniProt O00182); experiment: Competitive fluorescence polarization assay, galectin-9N; type: binding; conditions: mean ± SEM of n = 4–8
T2 construct: galectins (N = N-terminal domain, C = C-terminal domain); made in house
T2 sequence (O00182 17-148 limits assumed): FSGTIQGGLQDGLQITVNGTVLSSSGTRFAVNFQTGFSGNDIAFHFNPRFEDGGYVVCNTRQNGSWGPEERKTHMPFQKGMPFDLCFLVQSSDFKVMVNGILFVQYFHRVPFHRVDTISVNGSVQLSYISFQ
Description: as §1, §2

[3] = target: T3, galectin-8C (C-terminal domain) (Homo sapiens, UniProt O00214); experiment: Competitive fluorescence polarization assay, galectin-8C; type: binding; conditions: mean ± SEM of n = 4–8
T3 construct: galectins (N = N-terminal domain, C = C-terminal domain)
T3 sequence (O00214 187-317 limits assumed): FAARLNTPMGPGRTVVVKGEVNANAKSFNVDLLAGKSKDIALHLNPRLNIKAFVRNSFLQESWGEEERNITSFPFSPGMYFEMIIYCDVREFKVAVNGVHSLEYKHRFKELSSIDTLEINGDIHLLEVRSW

Structure (SMILES): Cn1c(CO[C@@H]2C=CO[C@H](CO)[C@@H]2O)nc2ccc(C(=O)O)cc21 [6a]
- Kd [1]: 1400 ± 30 µM
- cell viability (MTS), K562 (K562 cancer cell line): None of the compounds decreased the viability
- Kd [2]: 1400 ± 57 µM
- Kd [3]: 4000 ± 500 µM
